The target of the assay is TRPM8 (Homo sapiens, UniProt Q7Z2W7). Put plainly: Whole-cell patch-clamp electrophysiology, menthol-evoked TRPM8 currents in HEK-293 cells transiently transfected with human TRPM8. Format: cell-based. Here is the method: HEK-293 Cell culture. Human embryonic kidney (HEK) 293 cells (ATCC CRL-1573) were cultured in growth medium comprising 90% Dulbecco's modified Eagle's medium, 10% fetal bovine serum, 100 U·mL-1 penicillin-streptomycin, and 2 mM L-glutamine (Gibco). Cells were cultured in 35 mm polystyrene dishes (Falcon) at 37° C. in the presence of 5% CO2. Cells were transiently transfected with human TRPM8 in a pIRES2 plasmid containing EGFP as a reporter. This plasmid expresses bicistronic mRNA with an internal ribosome entry site (IRES) positioned between the TRPM8 gene and the fluorescent protein reporter gene such that the reporter is not covalently fused to TRPM8. […]
Chain of TRPM8 (Q7Z2W7 whole entry, the tested form may be a part): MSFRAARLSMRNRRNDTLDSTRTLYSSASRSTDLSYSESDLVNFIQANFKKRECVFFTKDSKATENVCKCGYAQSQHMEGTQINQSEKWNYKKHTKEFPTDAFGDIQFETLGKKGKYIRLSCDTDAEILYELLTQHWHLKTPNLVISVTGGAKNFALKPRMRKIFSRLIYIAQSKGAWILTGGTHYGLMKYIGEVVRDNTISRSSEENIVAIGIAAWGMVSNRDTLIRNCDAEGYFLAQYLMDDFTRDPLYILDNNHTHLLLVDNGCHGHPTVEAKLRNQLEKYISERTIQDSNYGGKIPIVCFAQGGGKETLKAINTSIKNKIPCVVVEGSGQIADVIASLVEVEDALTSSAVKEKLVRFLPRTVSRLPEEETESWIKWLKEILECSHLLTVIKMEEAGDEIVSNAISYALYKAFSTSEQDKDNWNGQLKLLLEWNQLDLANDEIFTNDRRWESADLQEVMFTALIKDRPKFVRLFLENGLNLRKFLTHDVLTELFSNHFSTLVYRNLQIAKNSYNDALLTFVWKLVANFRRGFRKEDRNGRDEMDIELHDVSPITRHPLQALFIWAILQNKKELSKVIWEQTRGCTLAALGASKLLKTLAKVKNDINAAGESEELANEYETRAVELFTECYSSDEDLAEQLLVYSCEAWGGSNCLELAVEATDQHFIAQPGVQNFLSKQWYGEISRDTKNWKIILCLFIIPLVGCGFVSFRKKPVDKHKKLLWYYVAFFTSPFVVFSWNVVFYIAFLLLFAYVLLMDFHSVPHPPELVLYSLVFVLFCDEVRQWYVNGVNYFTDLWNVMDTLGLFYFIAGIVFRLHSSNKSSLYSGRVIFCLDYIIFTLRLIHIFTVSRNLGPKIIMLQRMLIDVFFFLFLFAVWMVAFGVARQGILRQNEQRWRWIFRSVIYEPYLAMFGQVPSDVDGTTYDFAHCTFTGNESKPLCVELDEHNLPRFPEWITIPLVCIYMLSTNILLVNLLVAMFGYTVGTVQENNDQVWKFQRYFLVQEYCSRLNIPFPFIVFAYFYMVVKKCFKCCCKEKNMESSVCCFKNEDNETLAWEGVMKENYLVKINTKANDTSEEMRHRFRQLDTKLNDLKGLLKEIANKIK
Whole-cell patch-clamp electrophysiology. […] Osmolality was measured using a Vapro 5600 vapor pressure osmometer (Wescor). […] Pipettes had resistances of 2-5 MO as measured in the extracellular solution. […] Current response from each cell was measured under each concentration of Compound 14. Only one cell was measured per cover slip to prevent confounding effects of previous exposure to menthol and Compound 14.
Data analysis. For each cell, current magnitude at each concentration of Compound 14 was normalized by dividing by the maximum current measured at 500 μM menthol and without the antagonist. Normalized currents from six cells were averaged at each concentration of antagonist, and the standard error of the mean was calculated at each point. […]
On the technique in general: In patch-clamp work, channel activity is measured electrically.

Structures are written as SMILES.

As for `O=C(NC1CCC2(CCCC2)CC1)c1ccc(-c2ccccc2)cc1` [Compound 14, N-(spiro[4.5]decan-8-yl)-[1,1′-biphenyl]-4-carboxamide], for the setting “patch clamp”, the “antagonist activity relative to a tryptamine-based antagonist in the same assay” value amounted to 6 fold. In addition, the IC50 (whole-cell patch clamp, +80 mV, 500 μM menthol, n=6 cells, read-out: IC50, inhibition of menthol-evoked TRPM8 currents) was found to be 0.064 ± 0.002 µM.

As usually defined, the IC50 is the concentration that gives 50% inhibition.
